ChEMBL document CHEMBL2073818, “St John's Wort induces intestinal P-glycoprotein/MDR1 and intestinal and hepatic CYP3A4” (Clin Pharmacol Ther, 2000)

Molecular target: ATP-dependent translocase ABCB1 (Homo sapiens, UniProt P08183)
Assay: TP_TRANSPORTER: Western in vivo human
Format: functional, organism-based

ATP-dependent translocase ABCB1, sequence (P08183 whole entry): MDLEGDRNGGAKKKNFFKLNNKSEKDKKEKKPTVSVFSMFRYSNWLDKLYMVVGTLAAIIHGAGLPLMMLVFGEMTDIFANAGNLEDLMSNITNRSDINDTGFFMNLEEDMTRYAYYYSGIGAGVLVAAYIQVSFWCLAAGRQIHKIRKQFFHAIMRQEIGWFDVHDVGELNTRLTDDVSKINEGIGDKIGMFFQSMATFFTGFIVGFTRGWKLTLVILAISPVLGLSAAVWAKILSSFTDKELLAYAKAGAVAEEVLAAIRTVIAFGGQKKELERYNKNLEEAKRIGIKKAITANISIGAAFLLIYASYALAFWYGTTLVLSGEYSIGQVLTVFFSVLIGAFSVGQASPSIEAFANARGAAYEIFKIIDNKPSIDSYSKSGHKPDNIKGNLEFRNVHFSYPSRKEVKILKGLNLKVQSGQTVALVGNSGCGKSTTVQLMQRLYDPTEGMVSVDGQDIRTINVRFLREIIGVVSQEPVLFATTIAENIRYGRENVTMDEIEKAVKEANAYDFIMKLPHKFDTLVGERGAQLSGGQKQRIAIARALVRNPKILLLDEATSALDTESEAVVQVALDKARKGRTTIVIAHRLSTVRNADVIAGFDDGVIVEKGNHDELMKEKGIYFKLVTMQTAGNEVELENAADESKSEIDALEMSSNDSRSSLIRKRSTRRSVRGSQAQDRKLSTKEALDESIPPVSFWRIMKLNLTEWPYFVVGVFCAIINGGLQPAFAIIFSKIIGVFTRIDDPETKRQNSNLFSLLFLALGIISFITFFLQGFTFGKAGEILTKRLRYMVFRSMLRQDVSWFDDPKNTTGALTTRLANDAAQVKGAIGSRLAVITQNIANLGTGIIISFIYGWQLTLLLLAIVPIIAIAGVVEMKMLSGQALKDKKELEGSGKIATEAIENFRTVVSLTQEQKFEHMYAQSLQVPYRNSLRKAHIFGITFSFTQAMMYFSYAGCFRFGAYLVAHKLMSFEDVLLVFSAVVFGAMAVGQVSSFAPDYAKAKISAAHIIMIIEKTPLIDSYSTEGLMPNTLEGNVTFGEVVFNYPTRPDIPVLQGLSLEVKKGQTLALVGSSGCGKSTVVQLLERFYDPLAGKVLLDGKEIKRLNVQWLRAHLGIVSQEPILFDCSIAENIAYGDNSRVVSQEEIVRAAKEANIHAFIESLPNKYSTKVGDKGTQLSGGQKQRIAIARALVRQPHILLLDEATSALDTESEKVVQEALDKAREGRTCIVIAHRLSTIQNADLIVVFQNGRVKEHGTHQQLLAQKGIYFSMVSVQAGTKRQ

ST. JOHN'S WORT
Activity: inducer [+]
